Structures can show the parent of a compound that is named as a salt.
These molecules were tested against truncated PI3Kα (p110α/iSH2 p85α) (Homo sapiens (Human), UniProt P42336) (assay: PI3KA_Act fluorescence polarization kinase assay (Ki)). Conditions: 1 mM ATP.
Format: biochemical
Procedure, shortened: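 Ki values result from fitting fluorescence polarization signals to the Morrison equation for tight-binding competitive inhibitors. The detector was GST-Grp1 PH domain with TAMRA-PIP3, read after a 30 min room-temperature reaction of 0.5 nM truncated PI3Kα and 30 μM PIP2 at pH 7.4 in HEPES/NaCl/MgCl2/DTT/CHAPS buffer. Compounds were tested as 12-point 3-fold dilutions from 3 μM.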

Sequence of truncated PI3Kα (p110α/iSH2 p85α) (P42336 whole entry, the tested form may be a part): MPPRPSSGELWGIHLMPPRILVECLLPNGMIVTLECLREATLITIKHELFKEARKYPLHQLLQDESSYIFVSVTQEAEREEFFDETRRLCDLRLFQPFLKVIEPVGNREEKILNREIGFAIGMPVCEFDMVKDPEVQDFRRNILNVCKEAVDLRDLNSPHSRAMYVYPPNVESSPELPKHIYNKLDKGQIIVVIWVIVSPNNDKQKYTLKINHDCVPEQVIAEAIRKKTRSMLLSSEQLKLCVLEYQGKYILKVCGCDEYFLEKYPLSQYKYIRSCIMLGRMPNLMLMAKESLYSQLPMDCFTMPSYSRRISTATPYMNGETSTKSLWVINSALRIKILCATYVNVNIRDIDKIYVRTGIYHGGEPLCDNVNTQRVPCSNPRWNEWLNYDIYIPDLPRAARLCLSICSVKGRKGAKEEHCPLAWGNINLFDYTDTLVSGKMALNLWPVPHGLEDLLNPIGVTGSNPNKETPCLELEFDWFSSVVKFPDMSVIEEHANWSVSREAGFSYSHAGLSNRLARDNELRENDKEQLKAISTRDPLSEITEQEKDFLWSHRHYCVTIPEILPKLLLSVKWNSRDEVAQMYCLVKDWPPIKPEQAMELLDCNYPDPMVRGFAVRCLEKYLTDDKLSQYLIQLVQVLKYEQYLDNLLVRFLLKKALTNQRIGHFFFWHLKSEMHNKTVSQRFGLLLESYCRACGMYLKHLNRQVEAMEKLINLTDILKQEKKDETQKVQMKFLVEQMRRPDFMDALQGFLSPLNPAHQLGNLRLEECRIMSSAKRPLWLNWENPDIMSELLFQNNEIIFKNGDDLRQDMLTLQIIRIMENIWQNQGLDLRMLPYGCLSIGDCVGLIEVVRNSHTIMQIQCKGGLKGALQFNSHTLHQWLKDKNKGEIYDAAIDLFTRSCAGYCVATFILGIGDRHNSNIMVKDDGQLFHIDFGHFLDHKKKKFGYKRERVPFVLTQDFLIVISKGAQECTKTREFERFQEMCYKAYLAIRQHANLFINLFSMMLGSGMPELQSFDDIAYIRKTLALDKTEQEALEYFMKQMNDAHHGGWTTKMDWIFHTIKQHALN

**Q.** Which “PI3KA_Act Ki” value does the source give for `CC(C)(C(=O)O)C(=O)N1CC[C@](C)(N2CCc3c(-c4cnc(N)nc4)nc(N4CCOCC4)nc32)C1` [Example 319, 3-{(3S)-3-[4-(2-aminopyrimidin-5-yl)-2-(morpholin-4-yl)-5,6-dihydro-7H-pyrrolo[2,3-d]pyrimidin-7-yl]-3-methylpyrrolidin-1-yl}-2,2-dimethyl-3-oxopropanoic acid] here?
**A.** Its value is 2.266 nM.

**Q.** `CNCC(=O)N1CC[C@](C)(N2CCc3c(-c4cnc(N)nc4)nc(N4CCOCC4)nc32)C1` [Example 298, 1-{(3S)-3-[4-(2-aminopyrimidin-5-yl)-2-(morpholin-4-yl)-5,6-dihydro-7H-pyrrolo[2,3-d]pyrimidin-7-yl]-3-methylpyrrolidin-1-yl}-2-(methylamino)ethanone] was tested. Which “PI3KA_Act Ki” value did it give?
**A.** Its value is less than 0.018 nM.

**Q.** `C[C@H]1COCCN1c1nc(-c2cnc(N)nc2)c2c(n1)N([C@@]1(C)CCN(C(=O)C(C)(C)O)C1)CC2` [Example 473, 1-[(3S)-3-{4-(2-aminopyrimidin-5-yl)-2-[(3S)-3-methylmorpholin-4-yl]-5,6-dihydro-7H-pyrrolo[2,3-d]pyrimidin-7-yl}-3-methylpyrrolidin-1-yl]-2-hydroxy-2-methylpropan-1-one] was tested. Which “PI3KA_Act Ki” value did it give?
**A.** Its value is 0.076 nM.

**Q.** `CCC(C)(O)C(=O)N1CC[C@](C)(N2CCc3c(-c4cnc(N)nc4)nc(N4CCOCC4)nc32)C1` (single isomer, unassigned) [Example 274] was tested. Which “PI3KA_Act Ki” value did it give?
**A.** The value was 0.145 nM.

**Q.** How did the “PI3KA_Act Ki” value turn out when `C[C@H]1COCCN1c1nc(-c2cnc(N)nc2)c2c(n1)N([C@@]1(C)CCN(S(C)(=O)=O)C1)CC2` [Example 175] was run?
**A.** The value was 0.023 nM.

**Q.** How did the “PI3KA_Act Ki” value turn out when `C[C@@]1(N2CCc3c(-c4cnc(N)nc4)nc(N4CCOCC4)nc32)CCN(C(=O)C2(O)CCC2)C1` [Example 344, {(3R)-3-[4-(2-aminopyrimidin-5-yl)-2-(morpholin-4-yl)-5,6-dihydro-7H-pyrrolo[2,3-d]pyrimidin-7-yl]-3-methylpyrrolidin-1-yl}(1-hydroxycyclobutyl) methanone] was run?
**A.** The value was 0.098 nM.

**Q.** For `C[C@H]1COCCN1c1nc(-c2cnc(N)nc2)c2c(n1)N([C@@]1(C)CCN(C(=O)[C@@H](N)CF)C1)CC2.Cl` [Example 479, (2R)-2-amino-1-[(3S)-3-{4-(2-aminopyrimidin-5-yl)-2-[(3S)-3-methylmorpholin-4-yl]-5,6-dihydro-7H-pyrrolo[2,3-d]pyrimidin-7-yl}-3-methylpyrrolidin-1-yl]-3-fluoropropan-1-one hydrochloride], which “PI3KA_Act Ki” value is on record?
**A.** Its value is 0.026 nM.

**Q.** How did the “PI3KA_Act Ki” value turn out when `CCOC(=O)N1CC[C@@](C)(N2CCc3c(-c4cnc(N)nc4)nc(N4CCOCC4)nc32)C1` [Example 404, ethyl (3R)-3-[4-(2-aminopyrimidin-5-yl)-2-(morpholin-4-yl)-5,6-dihydro-7H-pyrrolo[2,3-d]pyrimidin-7-yl]-3-methylpyrrolidine-1-carboxylate] was run?
**A.** The value was 0.128 nM.

**Q.** How did the “PI3KA_Act Ki” value turn out when `CC(C)(C)NC(=O)N1CC[C@](C)(N2CCc3c(-c4cnc(N)nc4)nc(N4CCOCC4)nc32)C1` [Example 397, (3S)-3-[4-(2-aminopyrimidin-5-yl)-2-(morpholin-4-yl)-5,6-dihydro-7H-pyrrolo[2,3-d]pyrimidin-7-yl]-N-tert-butyl-3-methylpyrrolidine-1-carboxamide] was run?
**A.** Its value is 0.101 nM.

**Q.** For `CC[C@@]1(N2CCc3c(-c4cnc(N)nc4)nc(N4CCOCC4)nc32)CCN(C(=O)OC(C)(C)C)C1` [Example 410, tert-butyl (3R)-3-[4-(2-aminopyrimidin-5-yl)-2-(morpholin-4-yl)-5,6-dihydro-7H-pyrrolo[2,3-d]pyrimidin-7-yl]-3-ethylpyrrolidine-1-carboxylate], which Ki is on record?
**A.** The Ki was 0.262 nM.

**Q.** With `C[C@H]1COCCN1c1nc(-c2cnc(N)nc2)c2c(n1)N(C1CN(S(=O)(=O)CC3CC3)C1)CC2` [Example 159] as the molecule, how does the “PI3KA_Act Ki” value read?
**A.** Its value is 0.097 nM.

**Q.** With `CP(C)(=O)N1CC(N2CCc3c(-c4cnc(N)nc4)nc(N4CCOCC4)nc32)C1` [Example 189] as the molecule, how does the “PI3KA_Act Ki” value read?
**A.** The value was 1.162 nM.

**Q.** For `C[C@H]1COCCN1c1nc(-c2cnc(N)nc2)c2c(n1)N([C@@]1(C)CCN(C(=O)C(C)(C)N)C1)CC2` [Example 5, 2-amino-1-[(3S)-3-{4-(2-aminopyrimidin-5-yl)-2-[(3S)-3-methylmorpholin-4-yl]-5,6-dihydro-7H-pyrrolo[2,3-d]pyrimidin-7-yl}-3-methylpyrrolidin-1-yl]-2-methylpropan-1-one], which “PI3KA_Act Ki” value is on record?
**A.** Its value is 0.024 nM.

**Q.** How did the “PI3KA_Act Ki” value turn out when `CCC(C)(N)C(=O)N1CC[C@](C)(N2CCc3c(-c4cnc(N)nc4)nc(N4CCOCC4)nc32)C1.Cl` (stereo partly drawn) [Example 290, 2-amino-1-{(3S)-3-[4-(2-aminopyrimidin-5-yl)-2-(morpholin-4-yl)-5,6-dihydro-7H-pyrrolo[2,3-d]pyrimidin-7-yl]-3-methylpyrrolidin-1-yl}-2-methylbutan-1-one hydrochloride] was run?
**A.** Its value is less than 0.018 nM.

**Q.** For `CC(C)(N)C(=O)N1CC[C@@H](N2CCc3c(-c4cnc(N)nc4)nc(N4CCOCC4)nc32)C1.Cl` [Example 282, 2-amino-1-{(3R)-3-[4-(2-aminopyrimidin-5-yl)-2-(morpholin-4-yl)-5,6-dihydro-7H-pyrrolo[2,3-d]pyrimidin-7-yl]pyrrolidin-1-yl}-2-methylpropan-1-one hydrochloride], which “PI3KA_Act Ki” value is on record?
**A.** The value was 4.040 nM.

**Q.** How did the “PI3KA_Act Ki” value turn out when `CC1(C)COC(N2CC[C@](C)(N3CCc4c(-c5cnc(N)nc5)nc(N5CCOCC5)nc43)C2)=N1` [Example 9, 5-{7-[(3S)-1-(4,4-dimethyl-4,5-dihydro-1,3-oxazol-2-yl)-3-methylpyrrolidin-3-yl]-2-(morpholin-4-yl)-6,7-dihydro-5H-pyrrolo[2,3-d]pyrimidin-4-yl}pyrimidin-2-amine] was run?
**A.** The value was less than 0.018 nM.

**Q.** For `CCNC(=O)N1CC[C@@](C)(N2CCc3c(-c4cnc(N)nc4)nc(N4CCOCC4)nc32)C1` [Example 393, (3R)-3-[4-(2-aminopyrimidin-5-yl)-2-(morpholin-4-yl)-5,6-dihydro-7H-pyrrolo[2,3-d]pyrimidin-7-yl]-N-ethyl-3-methylpyrrolidine-1-carboxamide], which “PI3KA_Act Ki” value is on record?
**A.** Its value is 0.085 nM.

**Q.** Which “PI3KA_Act Ki” value does the source give for `CC1(O)CN(C(=O)N2CC[C@](C)(N3CCc4c(-c5cnc(N)nc5)nc(N5CCOCC5)nc43)C2)C1` [Example 369, {(3S)-3-[4-(2-aminopyrimidin-5-yl)-2-(morpholin-4-yl)-5,6-dihydro-7H-pyrrolo[2,3-d]pyrimidin-7-yl]-3-methylpyrrolidin-1-yl}(3-hydroxy-3-methylazetidin-1-yl)methanone] here?
**A.** The value was less than 0.018 nM.

**Q.** With `C[C@H]1COCCN1c1nc(-c2cnc(N)nc2)c2c(n1)N([C@@]1(C)CCNC1)CC2.Cl` [Example 465, 5-{2-[(3S)-3-methylmorpholin-4-yl]-7-[(3S)-3-methylpyrrolidin-3-yl]-6,7-dihydro-5H-pyrrolo[2,3-d]pyrimidin-4-yl}pyrimidin-2-amine hydrochloride] as the molecule, how does the “PI3KA_Act Ki” value read?
**A.** Its value is 0.160 nM.

**Q.** `C[C@@H]1COCCN1c1nc(-c2cnc(N)nc2)c2c(n1)N([C@]1(C)CCN(C(=O)OC(C)(C)C)C1)CC2` [Example 230] was tested. Which “PI3KA_Act Ki” value did it give?
**A.** The value was 6.996 nM.

**Q.** `CNC(=O)COC(=O)N1CC(N2CCc3c(-c4cnc(N)nc4)nc(N4CCOCC4)nc32)C1` [Example 142] was tested. Which “PI3KA_Act Ki” value did it give?
**A.** Its value is 0.159 nM.

**Q.** With `CNC(=O)N1CC[C@@](C)(N2CCc3c(-c4cnc(N)nc4)nc(N4CCOCC4)nc32)C1` [Example 2, (3R)-3-[4-(2-aminopyrimidin-5-yl)-2-(morpholin-4-yl)-5,6-dihydro-7H-pyrrolo[2,3-d]pyrimidin-7-yl]-N,3-dimethylpyrrolidine-1-carboxamide] as the molecule, how does the “PI3KA_Act Ki” value read?
**A.** Its value is 0.160 nM.

**Q.** With `CC[C@]1(N2CCc3c(-c4cnc(N)nc4)nc(N4CCOCC4)nc32)CCNC1.Cl` [Example 257, 5-{7-[(3S)-3-ethylpyrrolidin-3-yl)-2-(morpholin-4-yl)-6,7-dihydro-5H-pyrrolo[2,3-d]pyrimidin-4-yl}pyrimidin-2-amine hydrochloride] as the molecule, how does the “PI3KA_Act Ki” value read?
**A.** The value was 0.955 nM.

**Q.** How did the Ki turn out when `C[C@H]1COCCN1c1nc(-c2cnc(N)nc2)c2c(n1)N([C@@]1(C)CCN(C(=O)C3(F)CN(C(=O)OC(C)(C)C)C3)C1)CC2` [Example 497, tert-butyl 3-{[(3S)-3-{4-(2-aminopyrimidin-5-yl)-2-[(3S)-3-methylmorpholin-4-yl]-5,6-dihydro-7H-pyrrolo[2,3-d]pyrimidin-7-yl}-3-methylpyrrolidin-1-yl]carbonyl}-3-fluoroazetidine-1-carboxylate] was run?
**A.** Its Ki is 0.056 nM.

**Q.** For `C[C@]1(N2CCc3c(-c4cnc(N)nc4)nc(N4CCOCC4)nc32)CCN(C(=O)[C@]2(F)CCNC2)C1.Cl` [Example 383, {(3S)-3-[4-(2-aminopyrimidin-5-yl)-2-(morpholin-4-yl)-5,6-dihydro-7H-pyrrolo[2,3-d]pyrimidin-7-yl]-3-methylpyrrolidin-1-yl}[(3S)-3-fluoropyrrolidin-3-yl]methanone hydrochloride], which “PI3KA_Act Ki” value is on record?
**A.** Its value is less than 0.018 nM.

**Q.** For `C[C@H]1COCCN1c1nc(-c2cnc(N)nc2)c2c(n1)N([C@@]1(C)CCN(C(=O)[C@H](N)C3CC3)C1)CC2.Cl` [Example 482, (2R)-2-amino-1-[(3S)-3-{4-(2-aminopyrimidin-5-yl)-2-[(3S)-3-methylmorpholin-4-yl]-5,6-dihydro-7H-pyrrolo[2,3-d]pyrimidin-7-yl}-3-methylpyrrolidin-1-yl]-2-cyclopropylethanone hydrochloride], which “PI3KA_Act Ki” value is on record?
**A.** Its value is 0.022 nM.

**Q.** With `[2H]C1([2H])CN(c2nc(-c3cnc(N)nc3)c3c(n2)N([C@@]2(C)CCN(C(=O)C(C)(C)NC(=O)OC(C)(C)C)C2)CC3)CC([2H])([2H])O1` [Example 234] as the molecule, how does the Ki read?
**A.** Its Ki is 0.509 nM.

**Q.** Which “PI3KA_Act Ki” value does the source give for `CC(C)(C)OC(=O)N1CC(F)(C(=O)N2CC[C@](C)(N3CCc4c(-c5cnc(N)nc5)nc(N5CCOCC5)nc43)C2)C1` [Example 359, tert-butyl 3-({(3S)-3-[4-(2-aminopyrimidin-5-yl)-2-(morpholin-4-yl)-5,6-dihydro-7H-pyrrolo[2,3-d]pyrimidin-7-yl]-3-methylpyrrolidin-1-yl}carbonyl)-3-fluoroazetidine-1-carboxylate] here?
**A.** Its value is 0.128 nM.

Same assay, conditions: 1 mM ATP, hydrochloride

**Q.** Which “PI3KA_Act Ki” value does the source give for `CC1(N2CCc3c(-c4cnc(N)nc4)nc(N4CCOCC4)nc32)CCCNC1` (single isomer, unassigned) [Example 432, 5-[7-(3-methylpiperidin-3-yl)-2-(morpholin-4-yl)-6,7-dihydro-5H-pyrrolo[2,3-d]pyrimidin-4-yl]pyrimidin-2-amine hydrochloride] here?
**A.** The value was 11.739 nM.
